The source of these data is publication PMC9866905, “Dehydroeburicoic Acid, a Dual Inhibitor against Oxidative Stress in Alcoholic Liver Disease” (Pharmaceuticals, 2022).

For one test, the target named is T1, GSK3β (Homo sapiens, UniProt P49841).
T1 construct: gene GSK3B
Kind of test: ADP-Glo luminescent kinase assay, dose-response; supported by CETSA in LO2 lysate (ΔTm ca. […] °C). It counts as biochemical. (In ADP-Glo the light output rises with the ADP produced.)

The target of the next test is Keap1 (Homo sapiens, UniProt Q14145). Description: fluorescence polarization competition with labeled Nrf2 (ETGE) peptide, dose-response; supported by CETSA in LO2 lysate (ΔTm ca. […] °C). The note with it: read-out: EC50 (the source's name). It counts as binding. (In general: In fluorescence polarisation assays a small probe gives low polarisation when free and higher when bound to something large.)
Keap1, sequence (Q14145 whole entry): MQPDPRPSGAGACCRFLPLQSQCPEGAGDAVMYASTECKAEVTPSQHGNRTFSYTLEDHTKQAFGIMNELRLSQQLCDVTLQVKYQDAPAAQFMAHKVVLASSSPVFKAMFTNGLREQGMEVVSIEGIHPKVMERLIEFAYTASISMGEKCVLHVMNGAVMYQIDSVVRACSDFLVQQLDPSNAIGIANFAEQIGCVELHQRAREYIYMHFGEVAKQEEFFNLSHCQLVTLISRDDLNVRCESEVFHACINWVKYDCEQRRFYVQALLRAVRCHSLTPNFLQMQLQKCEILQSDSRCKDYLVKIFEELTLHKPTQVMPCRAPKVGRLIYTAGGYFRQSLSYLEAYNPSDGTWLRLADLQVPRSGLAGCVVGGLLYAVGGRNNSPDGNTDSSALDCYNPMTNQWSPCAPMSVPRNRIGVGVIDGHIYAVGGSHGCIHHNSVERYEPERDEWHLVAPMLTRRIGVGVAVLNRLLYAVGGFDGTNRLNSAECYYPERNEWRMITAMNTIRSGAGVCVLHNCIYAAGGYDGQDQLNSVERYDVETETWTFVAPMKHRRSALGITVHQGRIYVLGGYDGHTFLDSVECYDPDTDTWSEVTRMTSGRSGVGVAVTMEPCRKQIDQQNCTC

T1 sequence (P49841 whole entry): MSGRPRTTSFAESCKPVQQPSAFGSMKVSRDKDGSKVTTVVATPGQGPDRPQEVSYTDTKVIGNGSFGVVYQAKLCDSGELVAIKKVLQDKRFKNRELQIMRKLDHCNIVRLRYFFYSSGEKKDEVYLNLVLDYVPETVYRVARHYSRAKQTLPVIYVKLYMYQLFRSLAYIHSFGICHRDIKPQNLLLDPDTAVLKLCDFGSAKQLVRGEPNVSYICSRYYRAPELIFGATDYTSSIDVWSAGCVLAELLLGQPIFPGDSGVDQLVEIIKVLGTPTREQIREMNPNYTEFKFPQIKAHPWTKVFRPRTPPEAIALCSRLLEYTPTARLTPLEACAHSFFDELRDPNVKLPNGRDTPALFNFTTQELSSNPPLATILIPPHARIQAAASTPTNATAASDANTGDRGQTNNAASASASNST

Consider `C=C(CC[C@@H](C(=O)O)[C@H]1CC[C@@]2(C)C3=CC[C@H]4C(C)(C)[C@@H](O)CC[C@]4(C)C3=CC[C@]12C)C(C)C` [compound 1, Dehydroeburicoic acid], for which, at GSK3β, the response was half-maximal at 8 ± 0.7 µM (EC50). In addition, at Keap1, the IC50 was found to be 14.1 ± 0.1 µM.

Broadly, the EC50 is the concentration at which the effect is half-maximal.
